Assay results: PMC7029851, “Antibacterial activity of novel dual bacterial DNA type II topoisomerase inhibitors” (PLoS ONE, 2020)
In brackets after ≈: the same amount, converted by molar mass. Read-outs that look alike come from different tables or passages of the source.

What was measured:
E. coli DNA gyrase = target: T1, E. coli DNA gyrase (Escherichia coli, UniProt P0AES4); test: E. coli DNA gyrase supercoiling gel assay; assay type: biochemical
T1 construct: purchased Inspiralis (Norwich, UK)
Procedure: (§1) S. aureus and E. coli DNA gyrase supercoiling and topo IV decatenation assay kits, as well as human topoisomerase II decatenation assay kits, were provided by Inspiralis (Norwich, UK). Assays were performed according to the manufacturer’s instructions. The compounds were serially diluted (1:3 dilutions starting from a 300 μM final concentration) and assayed in a reaction mixture to obtain concentration-response curves in two different replicate experiments. The final concentration of DMSO in the assays was 1% (v/v). The reactions were terminated by the addition of 30 μl chloroform/isoamyl alcohol (26:1) and 30 μl Stop Dye (40% sucrose, 100 mM Tris HCl pH 7.5, 1 mM EDTA, 0.5 μg/ml bromophenol blue), after which the samples were loaded onto a 1.0% TAE ([…]) gel that was then run at 80 V for 2 hours. DNA bands were visualized by ethidium bromide staining the gel for 10 minutes, which was then destained for 10 minutes in water and analysed using gel documentation equipment (Syngene, Cambridge, UK). The DNA in each band was quantitated using Syngene Gene Tools software. Raw gel data (fluorescent band volumes) were converted by the software to percentages of the control (the fully supercoiled or decatenated DNA band). […] The global curve fit non-linear regression tool was used to calculate the IC50 values. The results are expressed as the average values obtained after calculating the IC50 from each replicate run.

E. coli Topoisomerase IV = target: T2, E. coli Topoisomerase IV (Escherichia coli, UniProt P0AFI2); test: E. coli topoisomerase IV decatenation gel assay; assay type: biochemical
T2 construct: purchased Inspiralis (Norwich, UK)
Procedure: as §1

S. aureus DNA gyrase = target: T3, S. aureus DNA gyrase (Staphylococcus aureus, UniProt P20831); test: S. aureus DNA gyrase supercoiling gel assay; assay type: biochemical
T3 construct: purchased Inspiralis (Norwich, UK)
Procedure: as §1

[1] = target: T4, S. aureus Topoisomerase IV (Staphylococcus aureus, UniProt P0C1U9); test: S. aureus topoisomerase IV decatenation gel assay; assay type: biochemical
T4 construct: purchased Inspiralis (Norwich, UK)
Procedure: as §1

Human Topoisomerase II = target: T5, Human Topoisomerase II (Homo sapiens, UniProt P11388); test: Human topoisomerase II decatenation gel assay; assay type: biochemical
T5 construct: purchased Inspiralis (Norwich, UK)
Procedure: as §1

S. aureus ATCC 29213 = test: MIC, broth microdilution; assay type: cell-based, Staphylococcus aureus; conditions: Staphylococcus aureus
Procedure: (§2) MICs were determined by the broth microdilution method (the agar dilution method was used only for N. gonorrhoeae) according to CLSI guidelines.

E. coli ATCC 25922 = test: MIC, broth microdilution; assay type: cell-based; conditions: Escherichia coli, ATCC25922; E. coli ATCC 25922, ciprofloxacin-susceptible
Procedure: as §2

E. faecalis ATCC 29212 = test: MIC, broth microdilution; assay type: cell-based; conditions: Enterococcus faecalis, ATCC29212; E. faecalis ATCC 29212, ciprofloxacin-susceptible
Procedure: as §2

H. influenzae ATCC 49766 = test: MIC, broth microdilution; assay type: cell-based; conditions: Haemophilus influenzae, ATCC49766; H. influenzae ATCC 49766, ciprofloxacin-susceptible
Procedure: as §2

[2] = system: K. pneumoniae ATCC 700603; test: MIC, broth microdilution; assay type: cell-based; conditions: Klebsiella pneumoniae, ATCC700603; K. pneumoniae ATCC 700603, ciprofloxacin-susceptible
Procedure: as §2

P. aeruginosa ATCC 27853 = test: MIC, broth microdilution; assay type: cell-based; conditions: Pseudomonas aeruginosa, ATCC27853; P. aeruginosa ATCC 27853, ciprofloxacin-susceptible
Procedure: as §2

S. aureus BAA-1720 = test: MIC, broth microdilution; assay type: cell-based; conditions: Staphylococcus aureus, BAA1720; S. aureus BAA-1720, ciprofloxacin-resistant
Procedure: as §2

S. pneumoniae ATCC 49619 = test: MIC, broth microdilution; assay type: cell-based; conditions: Streptococcus pneumoniae, ATCC49619; S. pneumoniae ATCC 49619, ciprofloxacin-susceptible
Procedure: as §2

S. pyogenes APV00083 = test: MIC, broth microdilution; assay type: cell-based; conditions: Streptococcus pyogenes; S. pyogenes APV00083, ciprofloxacin-susceptible
Procedure: as §2

[3] = system: N. gonorrhoeae ATCC 19424; test: MIC, agar dilution; assay type: cell-based; conditions: Neisseria gonorrhoeae, ATCC19424; N. gonorrhoeae ATCC 19424, ciprofloxacin-susceptible
Procedure: as §2

[4] = system: N. gonorrhoeae ATCC 49226; test: MIC, agar dilution; assay type: cell-based; conditions: Neisseria gonorrhoeae, ATCC49226; N. gonorrhoeae ATCC 49226, ciprofloxacin-susceptible
Procedure: as §2

N. gonorrhoeae WHO K = test: MIC, agar dilution; assay type: cell-based; conditions: Neisseria gonorrhoeae, ciprofloxacin-resistant
Procedure: as §2

N. gonorrhoeae WHO L = test: MIC, agar dilution; assay type: cell-based; conditions: Neisseria gonorrhoeae, ciprofloxacin-resistant
Procedure: as §2

N. gonorrhoeae WHO N = test: MIC, agar dilution; assay type: cell-based; conditions: Neisseria gonorrhoeae, ciprofloxacin-resistant
Procedure: as §2

E. coli TolC- mutant = test: microbe, parasite or virus in culture; assay type: cell-based; conditions: Escherichia coli
Procedure: (§3) The bacterial reference strains used in this study were purchased from ATCC (American Type Culture Collection) via LGC Standards (Middlesex, UK). […] Clinical MDR isolates were provided by Aptuit, the IHMA Europa Sàrl repository (Epalinges, Switzerland) and the Statens Serum Institute (Copenhagen, Denmark).
as §2

[5] = system: E. faecalis clinical isolates (n = 12) vanA (6)/vanB (6); test: MIC, multidrug-resistant clinical isolates; assay type: cell-based; conditions: Enterococcus faecalis
Procedure: as §3, §2
(§4) The results obtained using clinical isolates are reported as MIC50 and MIC90 values.

[6] = system: E. faecium clinical isolates (n = 12) vanA (6)/vanB (6); test: MIC, multidrug-resistant clinical isolates; assay type: cell-based; conditions: Enterococcus faecium
Procedure: as §3, §2, §4

[7] = system: N. gonorrhoeae clinical isolates (n = 38); test: microbe, parasite or virus in culture; assay type: cell-based, Neisseria gonorrhoeae
Procedure: as §3, §2, §4

T1 sequence (P0AES4 whole entry): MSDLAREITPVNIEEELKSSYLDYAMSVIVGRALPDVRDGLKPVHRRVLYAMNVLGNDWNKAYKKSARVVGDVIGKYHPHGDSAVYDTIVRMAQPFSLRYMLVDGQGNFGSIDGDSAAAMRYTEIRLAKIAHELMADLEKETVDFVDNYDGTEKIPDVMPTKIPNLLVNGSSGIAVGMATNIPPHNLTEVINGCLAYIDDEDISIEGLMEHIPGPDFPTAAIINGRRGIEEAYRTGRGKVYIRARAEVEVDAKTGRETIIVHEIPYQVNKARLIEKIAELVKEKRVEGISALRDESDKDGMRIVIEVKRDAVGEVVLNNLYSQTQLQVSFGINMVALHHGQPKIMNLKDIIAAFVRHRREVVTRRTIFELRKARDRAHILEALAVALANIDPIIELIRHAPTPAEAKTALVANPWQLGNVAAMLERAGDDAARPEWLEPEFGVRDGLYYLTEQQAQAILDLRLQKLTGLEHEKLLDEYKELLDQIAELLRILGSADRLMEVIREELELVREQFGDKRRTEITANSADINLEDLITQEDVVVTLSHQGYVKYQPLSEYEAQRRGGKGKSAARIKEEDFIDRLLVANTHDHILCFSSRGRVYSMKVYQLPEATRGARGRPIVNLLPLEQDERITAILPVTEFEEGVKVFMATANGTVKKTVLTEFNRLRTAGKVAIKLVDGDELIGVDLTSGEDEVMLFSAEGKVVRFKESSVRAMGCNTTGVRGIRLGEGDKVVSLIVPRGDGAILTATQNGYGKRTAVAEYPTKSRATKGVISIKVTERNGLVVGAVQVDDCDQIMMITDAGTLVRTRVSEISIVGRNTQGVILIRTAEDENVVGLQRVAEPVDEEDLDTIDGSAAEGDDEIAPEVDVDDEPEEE
T5 sequence (P11388 whole entry): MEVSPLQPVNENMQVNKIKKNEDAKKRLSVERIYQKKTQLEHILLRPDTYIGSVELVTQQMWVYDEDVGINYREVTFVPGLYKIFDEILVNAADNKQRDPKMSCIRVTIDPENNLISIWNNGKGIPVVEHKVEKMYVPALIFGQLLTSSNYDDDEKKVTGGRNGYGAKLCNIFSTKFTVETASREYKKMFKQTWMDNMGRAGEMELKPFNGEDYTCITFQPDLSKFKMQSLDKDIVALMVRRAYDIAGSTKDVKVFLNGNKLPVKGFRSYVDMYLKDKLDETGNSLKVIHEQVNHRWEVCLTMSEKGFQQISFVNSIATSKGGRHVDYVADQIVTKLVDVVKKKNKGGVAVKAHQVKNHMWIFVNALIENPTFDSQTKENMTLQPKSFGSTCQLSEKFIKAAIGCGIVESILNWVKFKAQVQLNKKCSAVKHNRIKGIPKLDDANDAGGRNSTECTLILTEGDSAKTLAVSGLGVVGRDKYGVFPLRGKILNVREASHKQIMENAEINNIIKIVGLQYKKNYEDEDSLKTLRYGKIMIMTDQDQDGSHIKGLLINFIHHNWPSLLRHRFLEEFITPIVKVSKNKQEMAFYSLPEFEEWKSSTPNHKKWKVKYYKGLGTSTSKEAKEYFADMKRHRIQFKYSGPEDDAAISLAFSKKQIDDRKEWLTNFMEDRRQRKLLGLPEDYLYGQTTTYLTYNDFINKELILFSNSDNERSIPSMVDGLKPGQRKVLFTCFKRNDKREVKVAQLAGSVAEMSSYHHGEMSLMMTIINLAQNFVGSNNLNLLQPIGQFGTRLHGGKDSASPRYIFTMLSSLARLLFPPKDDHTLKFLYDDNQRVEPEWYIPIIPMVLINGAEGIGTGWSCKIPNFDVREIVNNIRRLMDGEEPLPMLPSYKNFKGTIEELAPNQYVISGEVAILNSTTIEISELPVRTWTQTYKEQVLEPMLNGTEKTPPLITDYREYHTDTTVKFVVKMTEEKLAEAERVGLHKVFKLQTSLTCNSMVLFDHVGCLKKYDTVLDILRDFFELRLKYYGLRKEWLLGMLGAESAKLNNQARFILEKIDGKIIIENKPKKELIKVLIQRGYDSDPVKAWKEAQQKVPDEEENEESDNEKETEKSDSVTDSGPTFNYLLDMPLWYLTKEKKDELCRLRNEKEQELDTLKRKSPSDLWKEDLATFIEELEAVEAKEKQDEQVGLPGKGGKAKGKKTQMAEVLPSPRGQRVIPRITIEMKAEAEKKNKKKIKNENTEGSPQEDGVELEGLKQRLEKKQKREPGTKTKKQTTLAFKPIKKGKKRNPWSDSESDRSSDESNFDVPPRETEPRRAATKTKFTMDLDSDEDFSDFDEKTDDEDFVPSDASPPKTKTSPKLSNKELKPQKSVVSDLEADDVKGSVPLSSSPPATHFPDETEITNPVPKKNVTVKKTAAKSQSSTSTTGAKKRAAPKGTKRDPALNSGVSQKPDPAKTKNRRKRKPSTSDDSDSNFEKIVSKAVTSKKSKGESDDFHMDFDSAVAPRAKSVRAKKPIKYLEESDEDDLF
T2 sequence (P20083 whole entry): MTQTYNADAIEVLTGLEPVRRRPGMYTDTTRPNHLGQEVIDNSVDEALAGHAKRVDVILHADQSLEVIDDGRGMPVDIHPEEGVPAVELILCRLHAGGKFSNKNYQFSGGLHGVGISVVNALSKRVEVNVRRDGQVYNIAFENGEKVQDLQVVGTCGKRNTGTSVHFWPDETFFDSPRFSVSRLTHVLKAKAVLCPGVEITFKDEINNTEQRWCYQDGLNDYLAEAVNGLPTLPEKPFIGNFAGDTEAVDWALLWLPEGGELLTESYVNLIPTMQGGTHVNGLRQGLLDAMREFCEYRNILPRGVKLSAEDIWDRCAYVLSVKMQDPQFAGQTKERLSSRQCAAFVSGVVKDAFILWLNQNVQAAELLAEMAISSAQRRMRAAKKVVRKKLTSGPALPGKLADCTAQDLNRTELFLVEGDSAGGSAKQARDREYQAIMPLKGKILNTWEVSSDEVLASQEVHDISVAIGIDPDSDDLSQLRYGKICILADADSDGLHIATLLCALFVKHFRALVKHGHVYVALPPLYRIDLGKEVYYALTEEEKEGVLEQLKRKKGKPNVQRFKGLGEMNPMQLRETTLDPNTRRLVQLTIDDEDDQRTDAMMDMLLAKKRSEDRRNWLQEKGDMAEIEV
T2 sequence (P0AFI2 whole entry): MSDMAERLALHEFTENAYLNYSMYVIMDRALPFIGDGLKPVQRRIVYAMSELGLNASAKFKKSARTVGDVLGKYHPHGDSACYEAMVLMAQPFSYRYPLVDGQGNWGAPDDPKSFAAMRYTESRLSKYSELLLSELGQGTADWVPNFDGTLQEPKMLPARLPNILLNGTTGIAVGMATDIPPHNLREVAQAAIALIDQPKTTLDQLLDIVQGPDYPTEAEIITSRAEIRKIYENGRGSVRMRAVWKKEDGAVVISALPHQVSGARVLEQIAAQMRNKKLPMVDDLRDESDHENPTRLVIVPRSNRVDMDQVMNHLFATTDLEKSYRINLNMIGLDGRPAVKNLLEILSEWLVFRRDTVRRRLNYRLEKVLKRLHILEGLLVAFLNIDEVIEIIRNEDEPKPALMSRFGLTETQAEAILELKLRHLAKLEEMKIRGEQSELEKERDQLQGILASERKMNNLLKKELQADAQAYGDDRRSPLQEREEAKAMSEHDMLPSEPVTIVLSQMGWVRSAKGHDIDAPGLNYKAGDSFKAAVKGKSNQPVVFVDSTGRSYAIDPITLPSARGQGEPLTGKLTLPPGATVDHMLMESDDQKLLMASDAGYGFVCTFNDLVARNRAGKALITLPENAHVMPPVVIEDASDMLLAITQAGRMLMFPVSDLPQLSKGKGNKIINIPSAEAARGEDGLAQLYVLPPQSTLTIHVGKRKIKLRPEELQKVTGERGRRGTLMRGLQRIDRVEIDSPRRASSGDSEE

O=C1COc2ncc(F)cc2N1[C@H]1CC[C@H](NCc2cc3c(=O)oc4ccc(F)cc4c3[nH]2)CC1 [Compound 1, 8-fluoro-2-({[trans-4-(7-fluoro-2-oxo-2,3-dihydro-1H-pyrido[2,3-b][1,4]oxazin-1-yl)cyclohexyl]amino}methyl)[1]benzopyrano[4,3-b]pyrrol-4(1H)-one]
IC50 (E. coli DNA gyrase; average of two replicate experiments, read-out: IC50 E. coli Gyrase Supercoiling (average)): 250 nM | IC50 (E. coli DNA gyrase; replicate Assay 1, read-out: IC50 E. coli gyrase Supercoiling, Assay 1): 340 nM | IC50 (E. coli DNA gyrase; replicate Assay 2, read-out: IC50 E. coli gyrase Supercoiling, Assay 2): 160 nM | IC50 (E. coli Topoisomerase IV; average of two replicate experiments, read-out: IC50 E. coli Topoisomerase IV decatenation (average)): 1380 nM | IC50 (E. coli Topoisomerase IV; replicate Assay 1, read-out: IC50 E. coli Topoisomerase IV decatenation, Assay 1): 1350 nM | IC50 (E. coli Topoisomerase IV; replicate Assay 2, read-out: IC50 E. coli Topoisomerase IV decatenation, Assay 2): 1420 nM | IC50 (S. aureus DNA gyrase; IC50 S. aureus Gyrase Supercoiling (average), average of two replicate experiments): 280 nM | IC50 (S. aureus DNA gyrase; replicate Assay 1, read-out: IC50 S.aureus gyrase Supercoiling, Assay 1): 250 nM | IC50 (S. aureus DNA gyrase; replicate Assay 2, read-out: IC50 S.aureus gyrase Supercoiling, Assay 2): 310 nM | IC50 [1]: 2250 nM | IC50 ([1]; replicate Assay 1, read-out: IC50 S. aureus Topoisomerase IV decatenation, Assay 1): 2200 nM | IC50 ([1]; replicate Assay 2, read-out: IC50 S. aureus Topoisomerase IV decatenation, Assay 2): 2300 nM | IC50 (Human Topoisomerase II; average of two replicate experiments, read-out: IC50 Human Topoisomerase II decatenation (average)): 98000 nM | IC50 (Human Topoisomerase II; replicate Assay 1, read-out: IC50 Human Topoisomerase II (TopoII) decatenation, Assay 1): 96000 nM | IC50 (Human Topoisomerase II; replicate Assay 2, read-out: IC50 Human Topoisomerase II (TopoII) decatenation, Assay 2): 99000 nM | MIC (S. aureus ATCC 29213; ATCC29213, S. aureus ATCC 29213, ciprofloxacin-susceptible): 0.25 µg/mL (≈ 0.52 µM) | MIC (S. aureus ATCC 29213; ATCC29213, S. aureus ATCC29213, ref strain, S4 File): 0.25 µg/mL (≈ 0.52 µM) | MIC (E. coli ATCC 25922): 0.5 µg/mL (≈ 1.04 µM) | MIC (E. faecalis ATCC 29212): 2 µg/mL (≈ 4.16 µM) | MIC (H. influenzae ATCC 49766): 0.25 µg/mL (≈ 0.52 µM) | MIC [2]: 4 µg/mL (≈ 8.33 µM) | MIC (P. aeruginosa ATCC 27853): 2 µg/mL (≈ 4.16 µM) | MIC (S. aureus BAA-1720): 0.5 µg/mL (≈ 1.04 µM) | MIC (S. pneumoniae ATCC 49619): 0.5 µg/mL (≈ 1.04 µM) | MIC (S. pyogenes APV00083): 1 µg/mL (≈ 2.08 µM) | MIC [3]: ≤ 0.06 µg/mL | MIC [4]: 0.06 µg/mL (≈ 0.125 µM) | MIC (N. gonorrhoeae WHO K): 0.12 µg/mL (≈ 0.25 µM) | MIC (N. gonorrhoeae WHO L): 0.12 µg/mL (≈ 0.25 µM) | MIC (N. gonorrhoeae WHO N): 0.06 µg/mL (≈ 0.125 µM) | MIC (E. coli TolC- mutant): ≤ 0.016 µg/mL | MIC50 [5]: 0.03 µg/mL (≈ 0.0624 µM) | MIC90 [5]: 0.25 µg/mL (≈ 0.52 µM) | MIC ([5]; read-out: MIC range): 0.03 to 0.25 µg/mL (≈ 0.0624 to 0.52 µM) | MIC50 [6]: 1 µg/mL (≈ 2.08 µM) | MIC90 [6]: 2 µg/mL (≈ 4.16 µM) | MIC ([6]; read-out: MIC range): 0.03 to 16 µg/mL (≈ 0.0624 to 33.3 µM) | MIC range [7]: 0.016 to 0.12 µg/mL | MIC50 ([7]; Neisseria gonorrhoeae): 0.12 µg/mL (≈ 0.25 µM) | MIC90 ([7]; Neisseria gonorrhoeae): 0.12 µg/mL (≈ 0.25 µM)
